Tested on: preferentially upregulated genes in LV, SP, LN
Experiment: Z-score-based differential gene expression analysis (adjuvant group- or adjuvant-associated genes, 40 module mapping, TargetMine annotation)
Assay type: in vivo, C57BL/6 mice
Settings: ID, LV
Summary of the method: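 Per-sample fold-change values converted to gene-wise z-scores within each organ's data set, then triplicate z-scores summed per adjuvant. Genes with summed score >3 taken as preferentially expressed; gene groups defined by combined per-adjuvant z-score thresholds (z>1 to z>3) specific to each organ.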

Nc1nc2c(ncn2[C@@H]2O[C@@H]3COP(=O)(O)O[C@H]4[C@@H](O)[C@H](n5cnc6c(=O)[nH]c(N)nc65)O[C@@H]4COP(=O)(O)O[C@H]3[C@H]2O)c(=O)[nH]1 [cdiGMP, Cyclic diguanylate monophosphate]
Shisa5 1423986_a_at (Group G1, Modules 20) (sample x1): 0.72
Shisa5 1437503_a_at (Group G1, Modules 20) (sample x1): 1.05
Stat1 1450033_a_at (Group G1, Modules 20) (sample x1): 1.49
Stat1 1450034_at (Group G1, Modules 20) (sample x1): 0.88
Tdrd7 1426716_at (Group G1, Modules 20) (sample x1): 1.47
Tor1aip2 1418115_s_at (Group G1, Modules 20) (sample x1): 1.81
Tor1aip2 1418116_at (Group G1, Modules 20) (sample x1): 1.58
Tor1aip2 1435526_at (Group G1, Modules 20) (sample x1): 0.94
Trim12a 1437432_a_at (Group G1, Modules 20) (sample x1): 0.73
Uba7 1426970_a_at (Group G1, Modules 20) (sample x1): 0.53
Adar 1425405_a_at (Group G1, Modules 20) (sample x2): 1.67
Adar 1434268_at (Group G1, Modules 20) (sample x2): 1.83
Ddx58 1436562_at (Group G1, Modules 20) (sample x2): 0.88
Ddx58 1456890_at (Group G1, Modules 20) (sample x2): 1.45
Eif2ak2 1422005_at (Group G1, Modules 20) (sample x2): 1.38
G3bp2 1421323_a_at (Group G1, Modules 20) (sample x2): 1.5
Gm9706///Isg15 1431591_s_at (Group G1, Modules 20) (sample x2): 0.94
H2-T10///H2-T22///H2-T9 1449875_s_at (Group G1, Modules 20) (sample x2): 1.04
Ifih1 1426276_at (Group G1, Modules 20) (sample x2): 1.09
Ifit1 1450783_at (Group G1, Modules 20) (sample x2): 2.28
Ifit3 1449025_at (Group G1, Modules 20) (sample x2): 1.75
Irf7 1417244_a_at (Group G1, Modules 20) (sample x2): 1.21
Irgm1 1418825_at (Group G1, Modules 20) (sample x2): 1.29
Mndal 1426906_at (Group G1, Modules 20) (sample x2): 2.45
Pml 1448757_at (Group G1, Modules 20) (sample x2): 1.57
Pml 1456103_at (Group G1, Modules 20) (sample x2): 1.3
Rnf213 1455500_at (Group G1, Modules 20) (sample x2): 2.08
Rsad2 1436058_at (Group G1, Modules 20) (sample x2): 2.41
Shisa5 1423986_a_at (Group G1, Modules 20) (sample x2): 1.07
Shisa5 1437503_a_at (Group G1, Modules 20) (sample x2): 1.12
Stat1 1450033_a_at (Group G1, Modules 20) (sample x2): 1.44
Stat1 1450034_at (Group G1, Modules 20) (sample x2): 1.02
Tdrd7 1426716_at (Group G1, Modules 20) (sample x2): 1.15
Tor1aip2 1418115_s_at (Group G1, Modules 20) (sample x2): 1.67
Tor1aip2 1418116_at (Group G1, Modules 20) (sample x2): 1.33
Tor1aip2 1435526_at (Group G1, Modules 20) (sample x2): 0.83
Trim12a 1437432_a_at (Group G1, Modules 20) (sample x2): 0.83
Uba7 1426970_a_at (Group G1, Modules 20) (sample x2): 1.46
Adar 1425405_a_at (Group G1, Modules 20) (sample x3): 1.66
Adar 1434268_at (Group G1, Modules 20) (sample x3): 2.95
Ddx58 1436562_at (Group G1, Modules 20) (sample x3): 1.49
Ddx58 1456890_at (Group G1, Modules 20) (sample x3): 2.07
Eif2ak2 1422005_at (Group G1, Modules 20) (sample x3): 1.93
G3bp2 1421323_a_at (Group G1, Modules 20) (sample x3): 2.34
Gm9706///Isg15 1431591_s_at (Group G1, Modules 20) (sample x3): 2.02
H2-T10///H2-T22///H2-T9 1449875_s_at (Group G1, Modules 20) (sample x3): 2.06
Ifih1 1426276_at (Group G1, Modules 20) (sample x3): 1.65
Ifit1 1450783_at (Group G1, Modules 20) (sample x3): 2.4
Ifit3 1449025_at (Group G1, Modules 20) (sample x3): 2.34
Irf7 1417244_a_at (Group G1, Modules 20) (sample x3): 1.92
Irgm1 1418825_at (Group G1, Modules 20) (sample x3): 1.81
Mndal 1426906_at (Group G1, Modules 20) (sample x3): 2.76
Pml 1448757_at (Group G1, Modules 20) (sample x3): 2.16
Pml 1456103_at (Group G1, Modules 20) (sample x3): 2.58
Rnf213 1455500_at (Group G1, Modules 20) (sample x3): 3.16
Rsad2 1436058_at (Group G1, Modules 20) (sample x3): 2.39
Shisa5 1423986_a_at (Group G1, Modules 20) (sample x3): 1.57
Shisa5 1437503_a_at (Group G1, Modules 20) (sample x3): 1.32
Stat1 1450033_a_at (Group G1, Modules 20) (sample x3): 2.11

Reference: patent US20230021483A1, “[…] […] METHOD AND CLASSIFICATION OF PHARMACEUTICAL COMPONENTS BY USING TRANSCRIPTOMES” (National Institutes of Biomedical Innovation, Health and …, priority 2016, published 2023)
